Experimental findings from patent US6699851B2, “Cytotoxic compounds and their use” (Ardenia Investments, Ltd., priority 2000, dated 2004) are described below.

Values joined by “and” are separate entries in the source; they are usually repeats but may differ in a detail not shown here. Equal entries are not always repeated.

The subject of assay [1] is Ehrlich ascites carcinoma (EAC). Kind of assay: Effect of pretreatment with compositions on antitumour action of DXR in mice with EAC. It is filed as in vivo. The conditions noted are these: DXR alone (positive control) 3.5 mg/kg i.v. day 1, 3, 5, 7, day 8. The method, then: Randombred albino mice of the ICR line, female, from own rearing were used in the study. The room for animal housing is provided with filtered air at 15 changes per hour, temperature of 19-21° C., relative humidity of 50-60% and regulated light day of 12 hours with change of light and darkness at 6 h a.m. and 6 h p.m. The mice were kept in transparent polycarbonate cages with floor area of 600 cm^2 containing softwood sawdust bedding. The animals had free access to bottles with domestic quality drinking tap water and to standard feeding for growing animals ad libidum. The mice age 2-2.5 months, weighing 20-23 g were randomly distributed to the control and test groups, standardised by mean weights. The control and test groups included 15 and 12 animals respectively. Specific earmarks identified the mice from each group. […]
The mice were killed by cervical dislocation one day later after the final treatment with the test substances on day 8. Ascites fluids were removed, collected, their volumes were recorded, and abdominal cavities were washed by saline 6-7 times and both fluids were pooled. Volumes of tumour cell pellet after centrifugation at 1000 r.p.m. for 10 min were also recorded. Number of viable tumour cells was counted by haemocytometer. Means and standard errors for each of animal groups were calculated. […] Influence of the composition on EAC growth inhibition was evaluated by: [formula] […]

For assay [2], the system named is HeLa cell line of human cervical carcinoma. Kind of assay: Assay of cytotoxicity: HeLa cell growth inhibition (viable cell count, trypan blue exclusion). Format: cell-based. The conditions noted are these: compound alone; for number of living cells: three days of cultivation. How it is done: The assay of cytotoxicity of the inventive preparations was carried out on the well-known human cervical carcinoma cell line HeLa. HeLa cells were cultivated in full cultivation medium, containing 80% of Eagle Minimal Essential Medium with glutamine (Sigma), 20% of normal bovine serum, penicillin 100 IE/ml and streptomycin 100 μg/ml. HeLa cell at concentration of 10^5 cells/ml were seed in 24-well plates for adhesive cell lines (Sarstedt) in volume of 2 ml per well. HeLa cells were cultivated in CO2-incubator at temperature 37° C. in humidified atmosphere, consisting of 95% air and 5% CO2. On the next day, the experimental cultures were supplemented with solutions of the inventive preparations in normal bovine serum (NBS) in a volume of 20 μl, in order to obtain the necessary concentration for studying these in cultures. Control cultures were supplemented with normal bovine serum. After that HeLa cells were cultivated two days again at the same conditions. On the third day, HeLa cells from each cultures were harvested separately using versen. The number of viable cells was counted using tryphan blue exclusion test and a hemocytometer.
For evaluation of the cytotoxic action of these assayed preparations on HeLa cells the means value and standard errors of means of viable cell numbers were calculated. The cell growth inhibition (%) was calculated as: [formula]
The extent of cell growth inhibition caused by the assayed preparations was used for evaluation of their cytotoxicity.

The mark [3] stands for this setting: first series of concentrations (5.00-6.59×10^−10 mol/l final).
Setting [4] is: second series of concentrations (10.00-13.17×10^−10 mol/l final).

Regarding `COc1cccc2c1C(=O)c1c(O)c3c(c(O)c1C2=O)C[C@@](O)(C(=O)CO)C[C@@H]3O[C@H]1C[C@H](N)[C@H](O)[C@H](C)O1` [DXR, Doxorubicin], in assay [1], the EAC growth inhibition was 42.8% and 45.1% and 47.3% and 39.4% and 44.5%; the “number of tumour cells (EAC cells in abdominal cavity)” value is 525.2±74.5 ×10^6 and 436.3±51.8 ×10^6 and 614.4±60.2 ×10^6 and 542.6±50.1 ×10^6 and 534.8±39.3 ×10^6.

On to `CCC=CCC=CCC=CCC=CCC=CCC=CCCC(=O)NCCOP(=O)(O)O` [C6, N-docosahexaenoyl-O-phospho-2-aminoethanol], for which the cell growth inhibition in assay [2] (setting [3]) is listed as 6.6%; in assay [2] (setting [4]) it was 7.4%. The results for the “number of living cells” value in assay [2] (setting [3]) and in assay [2] (setting [4]) were 424.2±18.41 ×10^3 and 420.8±27.79 ×10^3, respectively.

`CC1=C(/C=C/C(C)=C/C=C/C(C)=C/C(=O)N[C@@H](Cc2ccc(OP(=O)(O)O)cc2)C(=O)O)C(C)(C)CCC1` (stereo in doubt) [C11, N-(all-trans-retinoyl)-O-phospho-L-tyrosine]: in assay [2] (setting [3]), the cell growth inhibition came out at 17.1% and the “number of living cells” value was 376.7±24.52 ×10^3. In addition, in assay [2] (setting [4]), the cell growth inhibition was determined as 5.2% and the “number of living cells” value is recorded as 430.8±16.37 ×10^3.
